In patent US12171813B2, “Methods of and compositions for reducing gene expression and/or activity” (Christiana Care Gene Editing Institute, Inc., priority 2021, dated 2024):

System: NRF2 gene
Test: Genomic DNA PCR assessment of large deletions in NRF2 gene
Type: cell-based, Human
Conditions: gRNA alone, not paired
Method: After CRISPR reactions, genomic DNA was prepared for PCR amplification of the target region from NRF2 gene. PCR-amplified DNA was then analyzed by electrophoresis through a 1% agarose gel for 75 minutes at 80v. DNA was stained with SYBR Safe. Lanes 1 and 12: NEB 2 Log Ladder; Lane 2: Scrambled gRNA; Lane 3: R34G gRNA alone; Lane 4: NRF2 3-4 SureKill gRNA 3 alone; Lane 5: NRF2 3-4 SureKill gRNA 12 alone; Lane 6: NRF2 3-4 SureKill gRNA 14 alone; Lane 7: NRF2 3-4 SureKill gRNA 15 alone; Lane 8: NRF2 3-4 SureKill gRNA 3+R34G gRNA; Lane 9: NRF2 3-4 SureKill gRNA 12+R34G gRNA; Lane 10: NRF2 3-4 SureKill gRNA 14+R34G gRNA; Lane 11: NRF2 3-4 SureKill gRNA 15+R34G gRNA. On the left side of the image are markers indicating DNA size in bp. Expected dropout size for NRF2 3-4 SureKill gRNA 3+R34G gRNA: 676 bp. Expected dropout size for NRF2 3-4 SureKill gRNA 12+R34G gRNA: 658 bp. Expected dropout size for NRF2 3-4 SureKill gRNA 14+R34G gRNA: 582 bp. Expected dropout size for NRF2 3-4 SureKill gRNA 15+R34G gRNA: 515 bp. Dropout bands are indicated by asterisks.
Human lung squamous cell carcinoma NCI-H1703 clone 44-25 cells were derived from NCI-H1703 cells (#CRL-5889) which were purchased from ATCC (Manassas, VA, USA). […]
Transfections were carried out using the Lonza Nuclefector 4d. […] RNPs were complexed at 250:50 pmol for 30 minutes prior to transfection, during which time cells were harvested and counted. […]

Substance: R34G gRNA: guide RNA GATATAGATCTTGGAGTAAG, SEQ ID NO:1, targets NRF2 R34G mutation (listed as DNA, chemistry not given here)
- large deletions (genomic DNA PCR): does not induce a large deletion
